Experimental data published in patent US20170143608A1, “SKIN COLOR-IMPROVING AGENT AND COMPOSITION FOR IMPROVING SKIN COLOR” (priority 2014, published 2017).

Tests used:
[1] = test system: heme oxygenase gene (HO-1 gene); test: Expression promoting effect on heme oxygenase gene in NB1-RGB cells (quantitative real-time PCR); conditions: for expression promoting effect on HO-1 gene compared to dl-α-tocopherol acetate group (in words): compared to the group in which dl-α-tocopherol acetate was added; for Relative gene expression level HO-1: final concentration 0.2 μm, 72 hours, standardized to GAPDH, 50% ethanol control = 1.00
Protocol: (§1) Specifically, the NB1-RGB cells were prepared at a seeding density of 10,000 cells/cm^2, and were cultured for 24 hours in a DMEM medium containing 10% fetal bovine serum. […] In addition, one obtained by adding only 50% ethanol to the medium of cells was used as the control.
(§2) Next, all RNA was extracted from each cell, cDNA was synthesized, quantitative real-time PCR was performed using this cDNA as a template, and the expression levels of the HO-1 gene and UGT1A1 gene were quantified.

[2] = test system: UDP-glucuronosyltransferase gene (UGT1A1 gene); test: Expression promoting effect on UDP-glucuronosyltransferase gene in NB1-RGB cells (quantitative real-time PCR); type: cell-based, human; conditions: for expression promoting effect on UGT1A1 gene compared to dl-α-tocopherol acetate group (in words): compared to the group in which dl-α-tocopherol acetate was added; for Relative gene expression level UGT1A1: final concentration 0.2 μm, 72 hours, standardized to GAPDH, 50% ethanol control = 1.00
Protocol: as §1, §2

Row | Structure (SMILES) | expression promoting effect on HO-1 gene compared to the control (in words) [1] | expression promoting effect on HO-1 gene compared to dl-α-tocopherol acetate group (in words) [1] | Relative gene expression level HO-1 [1] | expression promoting effect on UGT1A1 gene compared to the control (in words) [2] | expression promoting effect on UGT1A1 gene compared to dl-α-tocopherol acetate group (in words) [2] | Relative gene expression level UGT1A1 [2]
1 | Cc1c(C)c2c(c(C)c1OP(=O)([O-])[O-])CCC(C)(CCCC(C)CCCC(C)CCCC(C)C)O2.[Na+].[Na+] (stereo not drawn) [sodium α-tocopheryl phosphate] | expression promoting effect | higher expression promoting effect | 1.40 | expression promoting effect | higher expression promoting effect | 59.11
2 | Cc1c(OP(=O)([O-])[O-])cc2c(c1C)O[C@](C)(CCC[C@H](C)CCC[C@H](C)CCCC(C)C)CC2.[Na+].[Na+] [sodium γ-tocopheryl phosphate] | expression promoting effect | higher expression promoting effect | 1.21 | expression promoting effect | higher expression promoting effect | 42.98
3 | CC(=O)Oc1c(C)c(C)c2c(c1C)CCC(C)(CCCC(C)CCCC(C)CCCC(C)C)O2 (racemic) [dl-α-tocopherol acetate, reference compound] |  |  | 0.97 |  |  | 34.84
